Reference: PubChem BioAssay (NCI)
Where “and” joins values, the source holds several entries; their conditions need not be identical. Equal entries are not always repeated.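 Values below derive from 48-hour exposures of cells grown in 96-well plates, with endpoints linearly interpolated between the two concentrations bracketing the appropriate inhibition level. At the GI50, growth is halved. At the TGI there is no net growth.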

Assays:
Assay in all cases: DTP human tumour cell line panel, 48 h
SK-MEL-5 melanoma = tested on: SK-MEL-5 melanoma
HCT-15 colon = tested on: HCT-15 colon
SN12C renal = tested on: SN12C renal
SNB-75 CNS = tested on: SNB-75 CNS
LOX IMVI melanoma = tested on: LOX IMVI melanoma
CCRF-CEM leukemia = tested on: CCRF-CEM leukemia
U251 CNS = tested on: U251 CNS
NCI-H226 lung = tested on: NCI-H226 lung
SF-295 CNS = tested on: SF-295 CNS
COLO 205 colon = tested on: COLO 205 colon

SMILES | TGI (SK-MEL-5 melanoma) | TGI (HCT-15 colon) | TGI (SN12C renal) | TGI (SNB-75 CNS) | TGI (LOX IMVI melanoma) | TGI (CCRF-CEM leukemia) | TGI (U251 CNS) | TGI (NCI-H226 lung) | TGI (SF-295 CNS) | TGI (COLO 205 colon) | GI50 (SNB-75 CNS) | GI50 (LOX IMVI melanoma) | GI50 (CCRF-CEM leukemia) | GI50 (U251 CNS) | GI50 (SF-295 CNS) | GI50 (SK-MEL-5 melanoma) [µM] | GI50 (HCT-15 colon) [µM] | GI50 (SN12C renal) | GI50 (NCI-H226 lung) [µM] | GI50 (COLO 205 colon) [µM]
COc1ccccc1C(=O)N(Cc1ccccc1)c1ccc(Cl)c(C(=O)OC(C)C)c1 | 26.1 µM | > 100 µM | > 100 µM | > 77.5 µM | > 100 µM | > 100 µM | > 100 µM | 58 µM | > 100 µM | 50.9 µM |  |  |  |  |  |  |  |  |  | 
CC(=O)OCC1OC(n2c3c(cc(C#N)c2=S)CCCC3)C(OC(C)=O)C(OC(C)=O)C1OC(C)=O (stereo unspecified) | > 100 µM | > 100 µM | > 100 µM | > 100 µM and 50.4 µM | 57.3 µM and > 100 µM | > 100 µM | > 100 µM and 53 µM | > 100 µM | > 100 µM and 48.4 µM | > 100 µM | > 100 µM and 14.6 µM | 20.7 µM and > 100 µM | 43.2 µM and > 100 µM | > 100 µM and 21.9 µM | > 100 µM and 19.7 µM |  |  |  |  | 
C=C1C[C@@H]2O[C@H]3[C@H]4[C@@H](CC[C@@](C)(OC(=O)CCC)[C@H]42)[C@@H](C)C(=O)O[C@@]3(C)CC[C@H]1OO | 32.8 µM | 29.7 µM | 26.5 µM | 44.6 µM | 28.7 µM | 14.8 µM | 30.1 µM | 32.2 µM | 36.1 µM | 37.4 µM | 20.5 µM | 15.4 µM | 4.81 µM | 16.5 µM | 17.8 µM | 17.8 | 16.2 | 13.7 µM | 17 | 21.3
NC1=NCN(C2OC(CO)C(O)C2O)C(=O)N1 (stereo unspecified) | 335 µM | 530 µM | 1680 µM | 392 µM | 135 µM | 541 µM | 2410 µM | 414 µM | 1460 µM | 584 µM |  |  |  |  |  |  |  |  |  | 
COc1ccc(C2NC(=S)NC3=C2CCOc2c3ccc3ccccc23)cc1 (stereo unspecified) | > 100 µM | > 100 µM | > 100 µM | > 100 µM | > 100 µM | > 100 µM | > 100 µM | > 100 µM | > 100 µM | > 100 µM | 60.7 µM | > 100 µM | > 100 µM | > 100 µM | 19.1 µM | 18.2 | 21.4 | > 100 µM | 58.5 | 53.8
CC[C@H]1OC(=O)[C@H](C)[C@@H](O[C@H]2C[C@@](C)(OC)[C@@H](O)[C@H](C)O2)[C@H](C)[C@@H](O[C@@H]2O[C@H](C)C[C@H](N(C)C)[C@H]2O)[C@](C)(OC)C/C(C)=C2/O[C@@]1(C)C=C2C | 3.21 µM | 3.6 µM | 3.02 µM | 2.64 µM | 3.08 µM | 5.62 µM | 3.54 µM | 4.42 µM | 3.35 µM | 3.69 µM | 1.27 µM | 1.61 µM | 2.22 µM | 1.75 µM | 1.85 µM | 1.79 | 1.89 | 1.64 µM | 2.12 | 1.68
NCCCN=c1ccc2c3c1c(O)c1c(O)ccc(=O)c1c3[nH]n2CCNCCO | 3.61 µM and 4.11 µM | 25 µM and 112 µM | 6.15 µM and 10.2 µM | 5.14 µM and 4.69 µM | 5.8 µM | 8.77 µM and 28.3 µM | 5.61 µM and 27.7 µM | 7.05 µM and 10.7 µM | 7.44 µM and 39.9 µM | 5.91 µM and 6.96 µM | 0.423 µM | 1.53 µM | 0.583 µM and 0.478 µM | 0.606 µM and 0.485 µM | 1.06 µM | 0.706 | 1.4 | 0.413 µM and 0.391 µM | 1.05 | 1.61
CCOC(=O)/C(=C\c1ccc2ccccc2c1)P(=O)(OCC)OCC | 6.5 µM | 4.45 µM | 8.89 µM | 14.8 µM | 3.08 µM | 6.51 µM | 7.86 µM | 5.88 µM | 16.2 µM | 4.89 µM | 2.57 µM | 1.58 µM | 1.89 µM | 2.64 µM | 4.76 µM | 2.55 | 1.7 | 2.85 µM | 2.39 | 2.26
CCOc1ccc2cc(-c3nn(CC4CCNCC4)c4ncnc(N)c34)ccc2c1 | 29.9 µM | 32.1 µM | 33 µM | 20.8 µM | > 100 µM | 34.2 µM | 29.5 µM | 33.4 µM | 29.5 µM | 27 µM | 5.13 µM | 26.8 µM | 13.9 µM | 13.7 µM | 14.8 µM | 16.4 | 13.5 | 11.5 µM | 10 | 12.2
Cc1nc2ccccc2c(=O)n1/N=C(\N=Nc1cc(Cl)ccc1Cl)c1ccccc1 | > 100 µM | > 100 µM | > 83.3 µM | 74.1 µM | > 100 µM | > 100 µM | > 75.2 µM | > 100 µM | > 100 µM | > 100 µM |  |  |  |  |  |  |  |  |  | 
CN1CC[C@H](c2c(O)cc(O)c3c(=O)cc(-c4ccccc4Cl)oc23)[C@H](O)C1 | 0.159 µM | > 10 µM | > 10 µM | 0.155 µM | > 10 µM | > 10 µM | > 10 µM | 0.46 µM | 0.625 µM | 0.209 µM | 0.053 µM | 0.00602 µM |  |  | 0.21 µM | 0.052 |  | 0.0703 µM | 0.0695 | 0.0433
COc1ccc(C)cc1NC(=S)C#N | > 100 µM | > 100 µM | > 100 µM | > 100 µM | > 100 µM | > 100 µM | > 100 µM | > 100 µM | > 100 µM | > 100 µM |  |  |  |  |  |  |  |  |  | 
COc1cc2c(c(OC)c1OC)C(=O)NCCC2 | > 100 µM | > 100 µM | > 100 µM | > 100 µM | > 100 µM | > 100 µM | > 100 µM | > 100 µM | > 100 µM | > 100 µM |  |  |  |  |  |  |  |  |  | 
COc1cc2c3cc1Oc1c(OC)c(OC)cc4c1C(Cc1ccc(O)c(c1)Oc1ccc(cc1)CC3N(C)CC2)N(C)CC4 (stereo unspecified) | 52 µM and 23.3 µM | 37.6 µM and > 100 µM | 47.1 µM and > 100 µM | 52.7 µM and 24 µM | > 100 µM and 15.9 µM | 81.8 µM and 57.6 µM | 69.4 µM and 28.9 µM | > 100 µM | 59.1 µM and 29.8 µM | > 100 µM and 30.4 µM | 11.3 µM | 3.68 µM |  | 11.5 µM | 13.3 µM | 11 | 4.82 | 23.4 µM | 34.4 | 14.3
C[C@H]1CC[P+](C)(c2ccccc2)C1 (stereo partly specified) | > 100 µM | > 100 µM | > 100 µM | > 100 µM | > 100 µM | > 100 µM | > 100 µM | > 100 µM | > 100 µM | > 100 µM |  |  |  |  |  |  |  |  |  | 
